From paper PMC5835390 (Chemical communications (Cambridge, England), 2018)

Experiments:
[1] = chromatographic, C18 column, same gradient; cited from earlier work
carboxypeptidase = assay: Carboxypeptidase treatment of albusnodin; type: in vitro ADME; conditions: reports on threaded state, Fig. S9

Resistance to carboxypeptidase cleavage (carboxypeptidase) | Substance | HPLC elution time (used as indication of polarity) [1]
 | microcin J25 (GGAGHVPEYFVGIGTPISFYG; not fully specified; Microcin J25 lasso peptide; UniProt Q9X2V7 38-58, looked up) | around 17 minutes
 | astexin-2 | around 14 minutes
resistant to carboxypeptidase cleavage | albusnodin | 
 | astexin-3 | around 14 minutes
 | astexin-1 | around 14 minutes
